One assay concerns F-1. Format: biochemical, NK-1148 strain. As for the experimental part:
(§1) The results of measuring enzyme activities of the enzymes of this invention (F-1, F-2 and F-3) after adding each of various substances are as follows.
(§2) 20 μl of the enzyme of this invention is made to react with a reaction solution consisting of 10 μl of a 10 mM syringylglycerol-β-syringylether solution which contains a small amount of dioxane and 720 μl of a 50 mM acetate buffer solution (pH 5.0) and increases of absorbance at 300 nm are measured.
(§3) Enzyme activity producing a 0.01 increase of absorbance during one minute is supposed to be one unit.

A further assay deals with F-2. It counts as biochemical, NK-1148 strain. As for the experimental part:
as §1, §2, §3

In a further assay the test system is F-3. It counts as biochemical, NK-1148 strain. As for the experimental part: as §1, §2, §3
Assay [1] relates to NK-1148 strain (FERM BP-1859). Kind of assay: Effect of lignin-related substances on the enzyme production. Format: cell-based. The settings on record: 0.2% of substance added after 7 days culture, further cultured at 28° C. for one day. As for the experimental part: as §2, §3
After 100 ml of a medium of the same composition as that used in Example 3 was placed in a 500 ml Erlenmeyer flask and sterilized at 120° C. for 15 minutes, NK-1148 strain (FERM BP-1859) was inoculated into the medium and cultured at 28° C. for 7 days.

The mark [2] stands for this setting: substance added at 1 mM, no addition = 100%.
[3] abbreviates: substance added at 0.5 mM, no addition = 100%.

Like-named read-outs stand apart in the source and are kept apart here.

`OCCS` [2-Mercapto-ethanol]: in the assay on F-1 (setting [2]), the “Relative Activity F-1” value worked out at 10%. The “Relative Activity F-2” value with F-2 (setting [2]) stood at 19%. The “Relative Activity F-3” value in the assay with F-3 (setting [2]) was found to be 15%.

With `[Cl][Al]([Cl])[Cl]` [AlCl3], the “Relative Activity F-1” value with F-1 (setting [2]) was 61%. Also, the “Relative Activity F-2” value in the assay on F-2 (setting [2]) was found to be 65%. Also, in the assay with F-3 (setting [2]), the “Relative Activity F-3” value is 65%.

As to `[Ba+2].[Cl-].[Cl-]` [BaCl2], in the assay on F-1 (setting [2]), the “Relative Activity F-1” value is reported as 93%. For the same compound, the “Relative Activity F-2” value in the assay on F-2 (setting [2]) is given as 95%. Besides, in the assay with F-3 (setting [2]), the “Relative Activity F-3” value was determined as 95%.

`OCc1ccccc1` [Benzyl alcohol, benzyl alcohol] showed an Enzymatic activity in assay [1] of 0.01 Unit/ml.

With `[Ca+2].[Cl-].[Cl-]` [CaCl2], the “Relative Activity F-1” value in the assay with F-1 (setting [2]) came to 94%. The “Relative Activity F-2” value in the assay on F-2 (setting [2]) worked out at 95%. Moreover, the “Relative Activity F-3” value with F-3 (setting [2]) is reported as 95%.

`[Cl-].[Cl-].[Co+2]` [CoCl2]: in the assay with F-1 (setting [2]), the “Relative Activity F-1” value was determined as 97%. Further, the “Relative Activity F-2” value with F-2 (setting [2]) is 94%. For the same compound, the “Relative Activity F-3” value in the assay with F-3 (setting [2]) is 96%.

For the compound `[Cl][Cu][Cl]` [CuCl2], the “Relative Activity F-1” value with F-1 (setting [2]) is reported as 102%. Further, the “Relative Activity F-2” value in the assay with F-2 (setting [2]) worked out at 92%. Also, in the assay on F-3 (setting [2]), the “Relative Activity F-3” value is 100%.

On to `N[C@@H](CS)C(=O)O` [Cysteine], for which, in the assay with F-1 (setting [2]), the “Relative Activity F-1” value was 11%. Moreover, the “Relative Activity F-2” value in the assay on F-2 (setting [2]) is given as 21%. Further, in the assay on F-3 (setting [2]), the “Relative Activity F-3” value was 13%.

With `O=C(O)CN(CCN(CC(=O)O)CC(=O)O)CC(=O)O` [EDTA], the “Relative Activity F-1” value in the assay with F-1 (pH 5, 1000 µM) is 98. Moreover, the “Relative Activity F-2” value in the assay with F-2 (pH 5, 1000 µM) was found to be 102. Moreover, the “Relative Activity F-3” value in the assay on F-3 (pH 5, 1000 µM) was 101.

Regarding `[Cl][Fe]([Cl])[Cl]` [FeCl3], the “Relative Activity F-1” value in the assay on F-1 (setting [3]) stood at 15%. For the same compound, the “Relative Activity F-2” value in the assay on F-2 (setting [3]) amounted to 31%. In the assay on F-3 (setting [3]), the “Relative Activity F-3” value turned out to be 25%.

As for `[Cl][Hg][Cl]` [HgCl2], in the assay with F-1 (setting [2]), the “Relative Activity F-1” value is 11%. The “Relative Activity F-2” value with F-2 (setting [2]) came out at 21%. The “Relative Activity F-3” value with F-3 (setting [2]) is given as 18%.

Consider `[Cl-].[Cl-].[Mg+2]` [MgCl2], for which the “Relative Activity F-1” value in the assay with F-1 (setting [2]) was 94%. In addition, in the assay on F-2 (setting [2]), the “Relative Activity F-2” value came to 94%. Also, the “Relative Activity F-3” value in the assay on F-3 (setting [2]) was determined as 95%.

`[Cl][Mn][Cl]` [MnCl2]: the “Relative Activity F-1” value in the assay with F-1 (setting [2]) came to 95%. Also, in the assay on F-2 (setting [2]), the “Relative Activity F-2” value amounted to 95%. In addition, in the assay on F-3 (setting [2]), the “Relative Activity F-3” value was found to be 95%.

Regarding `[N-]=[N+]=[N-].[Na+]` [NaN3], the “Relative Activity F-1” value in the assay on F-1 (setting [2]) was 14%. Besides, in the assay on F-2 (setting [2]), the “Relative Activity F-2” value came to 23%. Besides, the “Relative Activity F-3” value in the assay with F-3 (setting [2]) is recorded as 20%.

As for `CCCCCCCCCCCCOS(=O)(=O)[O-].[Na+]` [SDS, sodium dodecyl sulfate], the “Relative Activity F-1” value in the assay with F-1 (setting [2]) was found to be 106%. The “Relative Activity F-2” value in the assay with F-2 (setting [2]) stood at 101%. Moreover, in the assay with F-3 (setting [2]), the “Relative Activity F-3” value was found to be 103%.

For the compound `COc1cc(CO)cc(OC)c1O` [Syringyl alcohol, syringyl alcohol], the Enzymatic activity in assay [1] stood at 4.0 Unit/ml.

In turn, `COc1cc(C(O)C(CO)Oc2c(OC)cccc2OC)cc(OC)c1O` (stereo not drawn) [Syringylglycerol-β-syringylether, syringylglycerol-β-syringylether] registered an Enzymatic activity in assay [1] of 3.9 Unit/ml.

Consider `COc1cc(CO)ccc1O` [Vanillyl alcohol, vanillyl alcohol], for which the Enzymatic activity in assay [1] is listed as 3.95 Unit/ml.

As for `COc1ccc(CO)cc1OC` [Veratryl alcohol, veratryl alcohol], in assay [1], the Enzymatic activity was 0.05 Unit/ml.

For `[Cl-].[Cl-].[Zn+2]` [ZnCl3], the “Relative Activity F-1” value in the assay with F-1 (setting [2]) is 94%. Also, in the assay with F-2 (setting [2]), the “Relative Activity F-2” value turned out to be 93%. The “Relative Activity F-3” value with F-3 (setting [2]) was 94%.

(Values after patent US5149648A, “Enzymes employed for producing pulps” (Kabushiki Kaisha Kobe Seiko Sho, priority 1989, dated 1992).)
